The results in this text go back to patent publication US20110201815A1, “FUSED HETEROCYCLIC DERIVATIVE AND USE THEREOF FOR MEDICAL PURPOSES” (KISSEI PHARMACEUTICAL CO., LTD., priority 2008, published 2011).

Assay [1] has as its target T1, Xanthine oxidase (from bovine milk, Sigma) (Bos taurus, UniProt P80457).
T1 construct: Xanthine oxidase (from bovine milk, Sigma); purchased Sigma; host or cells: bovine milk
Kind of assay: Xanthine oxidase inhibitory activity. Format: biochemical. The note with it: xanthine 200 μM added, 10 minutes at room temperature, absorbance at 290 nm. The protocol: Test compounds were dissolved in DMSO (Wako) at 40 mM concentration and then diluted to intended concentrations with phosphate-buffered saline (PBS).
Xanthine oxidase (from bovine milk, Sigma) was prepared with phosphate-buffered saline (PBS) at 0.02 units/mL, and then the solution was added to 96 well plates at 50 μL/well. In addition, test compounds diluted with PBS were added at 50 μL/well. Xanthine (Wako) at 200 μM prepared with PBS was added at 100 μL/well, and the reaction was measured for 10 minutes at room temperature. […] The absorbance under a condition without xanthine is 0%, and control without test compounds is 100%. Fifty % inhibitory concentration (IC50) of test compounds was calculated (Table 5). Ex. No in the table indicates example number.

The target of the next assay is T2, human URAT1 (Homo sapiens, UniProt Q96S37).
T2 construct: expressed in transfected cells; host or cells: COS7 cells (RIKEN CELL BANK RCB0539), transient transfection with pcDNA3.1
T2 sequence (Q96S37 1-553): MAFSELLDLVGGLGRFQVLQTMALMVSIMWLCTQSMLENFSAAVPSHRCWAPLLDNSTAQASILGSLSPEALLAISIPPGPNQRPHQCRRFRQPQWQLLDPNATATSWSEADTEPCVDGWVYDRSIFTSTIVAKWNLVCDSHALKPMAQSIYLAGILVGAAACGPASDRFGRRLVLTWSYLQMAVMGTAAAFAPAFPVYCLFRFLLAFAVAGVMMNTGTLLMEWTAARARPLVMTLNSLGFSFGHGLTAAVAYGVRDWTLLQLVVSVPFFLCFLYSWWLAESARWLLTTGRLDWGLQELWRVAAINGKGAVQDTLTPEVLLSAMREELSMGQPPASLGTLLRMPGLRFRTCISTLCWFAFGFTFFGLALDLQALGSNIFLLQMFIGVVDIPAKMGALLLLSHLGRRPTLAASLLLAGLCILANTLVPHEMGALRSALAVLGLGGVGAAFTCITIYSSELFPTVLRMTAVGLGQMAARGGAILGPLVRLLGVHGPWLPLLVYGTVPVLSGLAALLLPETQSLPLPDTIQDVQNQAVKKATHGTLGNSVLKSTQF
Nature of the assay: Inhibitory activity of uric acid transport with human URAT1 expressing cells. It counts as cell-based. The note with it: COS-7; concentration of 100 μM; 14C-uric acid uptake in COS7 cells transiently expressing human URAT1, 20 μM uric acid, 5 minutes; read-out: Percent inhibition. The protocol: Full length human URAT1 cDNA (NCBI Accession No. NM_144585) was subcloned into expression vector, pcDNA3.1 (Invitrogen). Human URAT1 expression vector was transfected into COS7 cells (RIKEN CELL BANK RCB0539) using Lipofectamine 2000 (Invitrogen). COS7 cells were seeded in collagen-coated 24 well plates (Japan Becton Dickinson) at 90-95% confluency and cultured in D-MEM culture medium (Invitrogen) containing 10% fetal bovine serum (Sanko Junyaku) for 2 hours at 37° C. under the condition of 5% CO2. For 1 well, 2 μL of Lipofectamine 2000 was diluted in 50 μL of OPTI-MEM (Invitrogen) and allowed to stand at room temperature for 7 minutes (hereinafter referred to as Lipo2000-OPTI). For 1 well, 0.8 μg of human URAT1 expression vector was diluted in 50 μL of OPTI-MEM (Invitrogen) and combined gently with Lipo2000-OPTI. After standing at room temperature for 25 minutes, the mixture was added to COS7 cells at 100 μL/well. […]
All tests were performed on hot-plate at 37° C. […] After mixing, the radioactivity was counted in a liquid scintillation counter (PerkinElmer). The radioactivity in COS7 cells not transfected with URAT1 expression vector was also counted under the same condition as control. […]
A: Radioactivity in control B: Radioactivity in the case of addition of test compounds C: Radioactivity in COS7 cells not transfected with URAT1 expression vector

T1 sequence (P80457 whole entry): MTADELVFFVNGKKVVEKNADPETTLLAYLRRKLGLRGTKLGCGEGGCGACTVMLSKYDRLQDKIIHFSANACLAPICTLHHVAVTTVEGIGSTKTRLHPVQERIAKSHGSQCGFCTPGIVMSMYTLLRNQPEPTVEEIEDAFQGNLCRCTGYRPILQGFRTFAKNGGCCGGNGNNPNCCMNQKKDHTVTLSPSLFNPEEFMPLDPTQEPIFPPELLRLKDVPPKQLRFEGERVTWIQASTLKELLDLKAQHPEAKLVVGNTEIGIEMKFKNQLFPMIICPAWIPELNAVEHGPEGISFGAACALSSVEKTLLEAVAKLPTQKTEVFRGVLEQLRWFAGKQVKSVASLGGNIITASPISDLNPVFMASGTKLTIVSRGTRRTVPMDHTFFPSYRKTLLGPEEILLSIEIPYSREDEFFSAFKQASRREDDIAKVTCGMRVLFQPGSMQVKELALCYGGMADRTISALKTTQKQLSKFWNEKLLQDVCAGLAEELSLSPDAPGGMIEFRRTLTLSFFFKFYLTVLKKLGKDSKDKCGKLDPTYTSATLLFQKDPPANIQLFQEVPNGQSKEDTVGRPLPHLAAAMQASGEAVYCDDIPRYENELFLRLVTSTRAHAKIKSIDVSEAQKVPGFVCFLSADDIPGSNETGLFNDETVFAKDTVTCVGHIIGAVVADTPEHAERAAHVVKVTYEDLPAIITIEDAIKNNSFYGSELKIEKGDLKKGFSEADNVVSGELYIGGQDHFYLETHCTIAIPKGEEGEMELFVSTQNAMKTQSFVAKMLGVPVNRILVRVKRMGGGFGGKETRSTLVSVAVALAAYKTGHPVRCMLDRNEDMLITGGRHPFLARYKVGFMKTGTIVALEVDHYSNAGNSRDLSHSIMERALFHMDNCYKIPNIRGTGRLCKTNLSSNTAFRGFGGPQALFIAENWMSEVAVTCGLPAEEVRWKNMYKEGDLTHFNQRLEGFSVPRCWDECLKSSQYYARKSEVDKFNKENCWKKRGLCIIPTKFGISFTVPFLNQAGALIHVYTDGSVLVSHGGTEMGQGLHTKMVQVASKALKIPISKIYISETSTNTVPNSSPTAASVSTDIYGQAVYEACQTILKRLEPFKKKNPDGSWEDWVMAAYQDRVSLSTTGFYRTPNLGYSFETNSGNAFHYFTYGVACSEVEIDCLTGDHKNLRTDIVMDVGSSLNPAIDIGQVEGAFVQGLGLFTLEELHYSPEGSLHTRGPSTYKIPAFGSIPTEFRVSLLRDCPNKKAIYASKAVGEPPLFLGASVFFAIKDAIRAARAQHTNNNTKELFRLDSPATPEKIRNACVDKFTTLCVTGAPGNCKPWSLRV

Usually IC50 stands for the point on the concentration scale where inhibition reaches its midpoint. `Cc1nc(-c2cc([N+](=O)[O-])c3c(ccn3C)c2)sc1C(=O)O` [Example 3, 4-Methyl-2-(1-methyl-7-nitro-1H-indole-5-yl) thiazole-5-carboxylic acid] returned an IC50 in assay [1] of 0.008 µM. Molecule `Cc1nc(-c2cc(C#N)c3c(c2)c(C)cn3C(C)C)sc1C(=O)O` [Example 8] registered an IC50 in assay [1] of 0.01 µM. The molecule `CC(C)Cn1ccc2cc(-c3cc(C(=O)O)ccn3)cc([N+](=O)[O-])c21` [Example 9] displayed an IC50 in assay [1] of 0.013 µM. On the same count and under the same terms, under `COCCn1ccc2cc(-c3cc(C(=O)O)ccn3)cc([N+](=O)[O-])c21` [Example 10] stands 0.114 µM. In the case of `N#Cc1cc(-c2cc(C(=O)O)ccn2)cc2cc[nH]c12` [Example 11, 2-(7-Cyano-1H-indole-5-yl) isonicotinic acid], the IC50 in assay [1] came out at 0.012 µM. Compared with the last molecule, the IC50 is about 9.5-fold lower. `Cn1ccc2cc(-c3cc(C(=O)O)ccn3)cc(C#N)c21` [Example 12, 2-(7-Cyano-1-methyl-1H-indole-5-yl) isonicotinic acid] gave an IC50 in assay [1] of 0.017 µM. In assay [1], `Cc1nc(-c2cc(C#N)c3c(c2)c(C)cn3CC(C)C)sc1C(=O)O` [Example 7] gave an IC50 of 0.031 µM. As to `Cc1nc(-c2cc(C#N)c3[nH]ccc3c2)sc1C(=O)O` [Example 13], the IC50 in assay [1] amounted to 0.007 µM.

As a reminder, the inhibition is the change of the read-out against control, counted positive when it falls. As for `Cn1ccc2cc(-c3cc(C(=O)O)ccn3)cc([N+](=O)[O-])c21` [Example 2, 2-(1-Methyl-7-nitro-1H-indole-5-yl) isonicotinic acid], the inhibition at 100 µM at human URAT1 is > 80%. The molecule further displayed an IC50 in assay [1] of 0.048 µM. On to `O=C(O)c1ccnc(-c2cc([N+](=O)[O-])c3occc3c2)c1` [Example 4, 2-(7-Nitrobenzofuran-5-yl) isonicotinic acid], for which, in assay [1], the midpoint of inhibition, the IC50, lay at 0.254 µM. Same read-out and setting: under `Cc1nc(-c2cc(C#N)c3c(c2)c(C)cn3C)sc1C(=O)O` [Example 1, 2-(7-Cyano-1,3-dimethyl-1H-indole-5-yl)-4-methylthiazole-5-carboxylic acid] stands 0.019 µM.
